We go through eight molecules from patent US7754718B2 (priority 2004, dated 2010).

Where a name gives a salt, the structure may show the parent alone. Read-outs that look alike come from different tables or passages of the source.

In one data set the test system is HBV. Put plainly: In vitro antiviral assay for HBV (Table 1). Format: cell-based, Hepatitis B virus. To be noted: read-out: Antiviral Activities (EC50, μM) HBV.
Data set [1] has as its system HCV. Briefly: Anti-HCV activity in Huh-Luc/neo cell line, luciferase activity after 3-day treatment. The format is cell-based, Hepatitis C virus. The following applies: Huh-Luc/neo cells; for EC50: given as a bound only, read-out: Antiviral Activities (EC50, μM) HCV.
A further data set has as its system HSV-1. Put plainly: In vitro antiviral assay for HSV-1. Format: cell-based, Herpes Simplex Virus 1. In a few lines:
(§1)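 Performed according to previously reported procedures for each virus; no further conditions are given for the HSV-2, CMV, HIV or EBV assays.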

The test system of a further data set is HSV-2. Briefly: In vitro antiviral assay for HSV-2. Format: cell-based, Herpes Simplex Virus 2. In a few lines:
as §1

A further data set relates to EBV. Put plainly: In vitro antiviral assay for EBV. Format: cell-based, Epstein-Barr Virus. The gist of the method: as §1
For another data set, the system named is HIV. Briefly: In vitro antiviral assay for HIV. The format is cell-based, human immunodeficiency virus. The following applies: (T) after a value means toxic. The gist of the method:
as §1

The subject of another data set is MT-2 cells. Put plainly: Cell cytotoxicity assay on MT-2 cells. Format: cell-based. To be noted: read-out: Cytotoxity (ID50, μM) MT-2. In a few lines: (§2)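 MT-2 and CEM cytotoxicity determined per previously reported procedures. HepG2 cells seeded at 10^4 cells/ml in MEME + 10% FBS, compound added on day 2 for 3 further days at 37° C. Viable layer stained with methylene blue, solubilized in 1% sarcosyl, A595 read.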

In another data set the test system is CEM cells. Put plainly: Cell cytotoxicity assay on CEM cells. Format: cell-based. To be noted: read-out: Cytotoxity (ID50, μM) CEM. The gist of the method: as §2
A further data set has as its system CMV. Briefly: In vitro antiviral assay for CMV. The format is cell-based, cytomegalovirus. The procedure: The antiviral assays for HBV, (Doong et al., 1991, Proc. Natl. Acad. Sci. U.S.A. 88:8495-8499) HSV-1, (Bastow et al., 1983, Antimicrob. Agents Chemother. 23: 914-917) HSV-2, (Bastow et al., 1983, Antimicrob. Agents Chemother. 23:914-917) EBV, (Yao et al., 1993, Antimicrob. Agents Chemother. 37:1420-1425), CMV (Andreoni et al., 2002, J. Med. Virol. 67:33-40) and HIV (Mellors et al., 1992, Mol. Pharmacol. 41: 446-451) were performed according to the previously reported procedures. Anti-HCV activities were tested in Huh-Luc/neo cell line. Cells were seeded into 48-well plates and grown until confluent. Different concentrations of drugs were added into media (DMEM, 10% dFBS) and incubated for 3 days. At the end of 3-day treatment, medium were removed and 50 μl of Passive lysis buffer (Promega) were added. Cell lysate was shaken at room temperature for 15 min. 30 μl/well of cell lysate was transferred to another 96-well plate, 100 μl/well of luciferase activity assay substrate was added into plate and read by a luminometer (Amersham) immediately.

Data set [2] can be described thus: Cell cytotoxicity assay on MT-2 cells. Format: cell-based. The following applies: human, read-out: Cytotoxity (ID50, μM) MT-2. The gist of the method:
as §2

Data set [3] can be described thus: Cell cytotoxicity assay on CEM cells. The format is cell-based. To be noted: human, read-out: Cytotoxity (ID50, μM) CEM. The gist of the method: as §2
The subject of data set [4] is HCV. To be noted: ribavirin alone; cited from earlier work.
Data set [5] relates to HCV. The following applies: patients chronically infected with HCV, IFN as sole treatment; cited from earlier work.
The mark [6] stands for this setting: in vitro, read-out: Antiviral Activities (EC50, μM) HSV-1.
[7] abbreviates: in vitro, read-out: Antiviral Activities (EC50, μM) HSV-2.
Setting [8] is: in vitro, read-out: Antiviral Activities (EC50, μM) EBV.
[9] abbreviates: in vitro, read-out: Antiviral Activities (EC50, μM) HIV.
Setting [10] is: Human alphaherpesvirus 1, read-out: Antiviral Activities (EC50, μM) HSV-1.
Setting [11] is: Human alphaherpesvirus 2, read-out: Antiviral Activities (EC50, μM) HSV-2.
[12] abbreviates: human gammaherpesvirus 4, read-out: Antiviral Activities (EC50, μM) EBV.
The mark [13] stands for this setting: Human betaherpesvirus 5, read-out: Antiviral Activities (EC50, μM) CMV.
Setting [14] is: Human immunodeficiency virus 1, read-out: Antiviral Activities (EC50, μM) HIV, in vitro.

The term EC50 denotes the concentration at which the effect is half-maximal. As to `O=C1c2cc3ccc4c(c3c(-c3ccc5c(c3)OCO5)c2C(=O)N1CCCOCc1ccccc1)OCO4` [Compound 10, 10-Benzo[1,3]dioxol-5-yl-8-(3-benzyloxy-propyl)-1,3-dioxa-8-aza-dicycloplenta[a,g]naphthalene-7,9-dione], the EC50 with HBV (in vitro) was > 10 µM; with HSV-1 (setting [6]) it was > 50 µM; in the data set on HSV-2 (setting [7]) it was > 50 µM; with EBV (setting [8]), > 5 µM; in the data set on HIV (setting [9]) it was > 100 µM. Further, in the data set with HCV [1] (at 10 μM, 3 days), the “HCV percent of inhibition” value was 62%. In addition, the IC50 in the data set with MT-2 cells and in the data set on CEM cells was > 100 µM each time.

With `O=C1NCc2cc3ccc4c(c3c(-c3ccc5c(c3)OCO5)c21)OCO4` [Compound 16, 10-Benzo[1,3]dioxol-5-yl-7,8-dihydro-13-dioxa-8-aza-dicyclopenta[a,g]naphthalen-9-one], the EC50 in the data set on HBV (in vitro) was > 10 µM; in the data set on HCV [1] (3 days), > 10 µM; in the data set with HSV-1 (setting [6]), > 50 µM; in the data set with HSV-2 (setting [7]), > 50 µM; with EBV (setting [8]), > 20 µM; in the data set on HIV (setting [9]) it was > 100 µM. In addition, the IC50 in the data set with MT-2 cells was > 100 µM; in the data set with CEM cells it was 90 µM.

As to `O=c1[nH][nH]c(=O)c2c(-c3ccc4c(c3)OCO4)c3c4c(cc(Br)c3cc12)OCO4` [Compound 42, 11-Benzo[1,3]dioxol-5-yl-5-bromo-8,9-dihydro-[1,3]dioxa-8,9-diaza-cyclopenta[a]anthracene-7,10-dione], the EC50 was > 20 µM in the data set on HBV (in vitro), 16 µM with HSV-1 (setting [6]), > 20 µM in the data set on HSV-2 (setting [7]) and > 20 µM in the data set on EBV (setting [8]). For the same molecule, in the data set on HCV [1] (at 3 μM, 3 days), the “HCV percent of inhibition” value was found to be 45%. Also, the IC50 was > 100 µM in the data set with MT-2 cells and 28 µM in the data set on CEM cells.

For orientation: melting point means the temperature of the solid-liquid transition. As for `O=C([O-])c1cc2c(Cl)cc3c(c2c(-c2ccc4c(c2)OCO4)c1CO)OCO3.[Na+]` [Compound 44, 9-Benzo[1,3]dioxol-5-yl-5-chloro-8-hydroxymethyl-naphtho[1,2-d][1,3]dioxole-7-carboxylic acid monosodium salt], the melting point was 220 °C (dec.). Moreover, in the data set with HBV (Hepatitis B virus), the EC50 was > 10 µM. Moreover, the EC50 in the data set on HCV [1] (Hepatitis C virus, 72 h, 3 days) was > 10 µM. The concentration giving a half-maximal response (EC50) with HSV-1 (setting [10]) was > 50 µM. The EC50 in the data set on HSV-2 (setting [11]) is > 50 µM. The EC50 in the data set with EBV (setting [12]) was > 20 µM. For the same molecule, the EC50 in the data set with CMV (setting [13]) was > 20 µM. The EC50 in the data set with HIV (setting [14]) was > 60 µM. The IC50 in [2] was 60 µM. For the same molecule, the IC50 in [3] is > 100 µM.

For `O=C(O)c1cc2c(Br)cc3c(c2c(-c2ccc4c(c2)OCO4)c1CO)OCO3` [Compound 45, 9-Benzo[1,3]dioxol-5-yl-5-bromo-8-hydroxymethyl-naphtho[1,2-d][1.3]dioxole-7-carboxylic acid monosodium salt], the half-maximal effective concentration (EC50) in the data set with HBV (in vitro) was > 10 µM; in the data set on HSV-1 (setting [6]), > 50 µM; in the data set on HSV-2 (setting [7]) it was > 50 µM; in the data set on EBV (setting [8]), > 20 µM; in the data set with CMV (in vitro, read-out: Antiviral Activities (EC50, μM) CMV), > 20 µM; in the data set on HIV (setting [9]), > 50 µM. Further, the figures for the IC50 in the data set on MT-2 cells and with CEM cells were 50 µM and 46.5 µM, respectively.

For orientation: inhibition means the change of the read-out against control, counted positive when it falls. For `O=C([O-])c1cc2c(I)cc3c(c2c(-c2ccc4c(c2)OCO4)c1CO)OCO3.[Na+]` [Compound 46, 9-Benzo[1,3]dioxol-5-yl-8-hydroxymethyl-5-iodo-naphtho[1,2-d][1,3]dioxole-7-carboxylic acid monosodium salt], the melting point is 212 °C (dec.). Also, the EC50 with HBV (Hepatitis B virus) was > 18 µM. In addition, the inhibition at 10 µM in the data set on HCV [1] (Hepatitis C virus, 72 h, at 10 μM, 3 days, read-out: HCV percent of inhibition) was found to be 36%. The EC50 in the data set on HSV-1 (setting [10]) was > 50 µM. Further, the EC50 with HSV-2 (setting [11]) was > 50 µM. The EC50 in the data set with EBV (setting [12]) was > 20 µM. Further, in the data set with CMV (setting [13]), the EC50 is > 20 µM. In addition, the EC50 in the data set with HIV (setting [14]) is > 80 µM. Moreover, in [2], the IC50 was 80 µM. Moreover, the IC50 in data set [3] is > 100 µM.

Consider `NC(=O)c1ncn([C@@H]2O[C@H](CO)[C@@H](O)[C@H]2O)n1` [Ribavirin, 1-beta-D-ribofuranosyl-1-1,2,4-triazole-3-carboxamide], for which the “patients in whom serum amino transferase levels are reduced to normal” value in the data set on HCV [4] was 40%.

For Interferon, the “HCV column: concentration at which the percent of inhibition was seen” value with HCV [1] (Interferon control) is 10 u/ml. Besides, the “HCV percent of inhibition” value in the data set with HCV [1] (at 10 u/ml) is on record as “(90) %”. Further, the “patients with a sustained response” value in the data set on HCV [5] is 8%-9%.
